Test results reported in patent publication US20130345257A1, “COMPOSITION FOR LUPUS NEPHRITIS AND METHODS OF MAKING AND USING THE SAME” (The Regents of the University of California, priority 2012, published 2013).
Entries after “also recorded” stand apart in the source; their conditions may differ.

Tests used:
[1] = tested on: CD4+ regulatory T cells (CD4+ Foxp3+) in PBMC; assay: CD4+ Tregs within PBMC of treated mice; assay type: in vivo, mouse; conditions: LAQ 1 or 25 mg/kg; compared to the other groups
Excerpt: FIG. 7 depicts an exemplary embodiment: A) illustrates gating technique used to identify CD4+ regulatory T cells (CD4+ Tregs), which are shown as the dotted cloud inside the box insert and also labeled as CD4+ Foxp3+.

[2] = tested on: monocyte/macrophages (CD11b^+Ly6C^−Ly6G^−); assay: Expression of activation/costimulatory molecules on splenic monocyte/macrophages of treated mice; assay type: cell-based, mouse
Excerpt: Spleens were removed 7 weeks after initiation of laquinimod treatment in PU^lo animals. Splenocytes were stimulated with TLR4 (LPS), 7 (imiquimod), or 9 (ODN) agonists, or PMA plus ionomycin, as described. FACS plots are representative of one experiment showing intracellular production of (A) IL-10 or (B) TNFα by monocyte/macrophages (CD11b+Ly6C−Ly6G−), and (C) IFNγ by CD4^+ T cells from laquinimod- or vehicle-treated mice. Graphs of IL-10, TNFα, and IFNγ production represent mean±SEM of cytokine production (n=6/gp, *p<0.05, **p<0.01, ***p<0.001 using two way ANOVA). […] Graphs depict mean±SD of mean fluorescence intensity (MFI) and are from three independent experiments with similar results. (n=4/gp, *p<0.05, **p<0.01, ***p<0.001 using t test).
Single-cell suspensions from spleen or kidneys were stained for extracellular markers for 20 min at 4° C. in PBS/1% FBS. Intracellular staining for Foxp3 and cytokines was performed using the Foxp3 Fixation/Permeabilization kit according to the manufacturer's protocol (eBioscience). Cells were acquired on a FACS LSR II (BD) and data was analyzed using Flowjo (Tree Star).

MS patients = conditions: compared to placebo; cited from earlier work
[3] = tested on: monocyte/macrophages (CD11b^+Ly6C^−Ly6G^−) and CD4^+ T cells; assay: Intracellular cytokines in splenocytes of treated mice after TLR agonist or PMA plus ionomycin stimulation; assay type: cell-based, mouse; conditions: vs vehicle
Procedure: For intracellular cytokines, whole splenocytes were stimulated with a) LPS (1 μg/mL) (Sigma), imiquimod, a toll like receptor 7 (TLR7) agonist, or ODN, a TLR9 agonist (both at 10 μg/mL) in 2% FBS RPMI 1640 for 24 hours in the presence of monensin (BioLegend) for the last 12 hours; or b) phorbol 12-myristate 13-acetate (PMA, 50 ng/ml) plus ionomycin (500 ng/ml) in the presence of monensin for 5 hours. Monensin was used to prevent cytokine secretion and optimize intracellular staining Intracellular expression of cytokines in CD4^+ cells and macrophages (CD11b^+Ly6C^−Ly6G^−) was analyzed by intracellular flow cytometry. Single-cell suspensions from spleen or kidneys were stained for extracellular markers for 20 min at 4° C. in PBS/1% FBS. Intracellular staining for Foxp3 and cytokines was performed using the Foxp3 Fixation/Permeabilization kit according to the manufacturer's protocol (eBioscience). Cells were acquired on a FACS LSR II (BD) and data was analyzed using Flowjo (Tree Star).

patients = conditions: dose of 2 g daily; dose-dependent; cited from earlier work

| Structure (SMILES) | Percentage of CD4+ Tregs within PBMC [1] | Expression of MHC 11, CD86 and CD80 on M/M after in vitro stimulation with LPS ([2]; LPS 1 μg/mL) | Ex vivo expression of MHC 11, CD86 and CD40 on M/M ([2]; vs vehicle-treated animals, listed as laquinimod) | New MRI lesions in the brains of patients with RRMS (MS patients) | IL-10^+ M/M ([3]; splenic M/M after TLR agonist stimulation, PU^lo animals, 7 weeks of treatment) | M/M producing TNF-α ([3]; splenic M/M after TLR agonist stimulation, listed as laquinimod) | CD4^+ T cells producing IFN-γ ([3]; splenocytes, PMA plus ionomycin) | Patients with gastrointestinal side effects (patients) |
| --- | --- | --- | --- | --- | --- | --- | --- | --- |
| CCN(C(=O)c1c(O)c2c(Cl)cccc2n(C)c1=O)c1ccccc1 [LAQ, 5-chloro-N-ethyl-4-hydroxy-1-methyl-2-oxo-N-phenyl-1,2-dihydroquinoline-3-carboxamide] | significantly higher percent | significantly lower | decreased expression; also recorded: down-regulated | significant reduction | Significantly more | unable to respond; also recorded: significantly fewer | significantly fewer |  |
| COc1c(C)c2c(c(O)c1C/C=C(\C)CCC(=O)OCCN1CCOCC1)C(=O)OC2 [MMF, mycophenolate mofetil, reference compound] |  |  |  |  |  |  |  | up to 20% |
